In patent EP4480493A1, “A RECOMBINANT HUMAN ALPHA-1 ANTITRYPSIN GLYCOPROTEIN FOR TREATING NON-VIRAL INFLAMMATORY DISEASES OF THE LUNG” (AATEC Medical GmbH, priority 2023, dated 2024):
Where a name gives a salt, the structure may show the parent alone.

Experiments:
[1] = target: recombinant human TMPRSS2 enzyme (CusaBio #YP023924HU) (human) (UniProt O15393); assay: cell-based or functional assay
[2] = target: T1, human neutrophil elastase (Homo sapiens, UniProt P08246); assay: Neutrophil Elastase activity assay (fluorogenic AMC substrate); assay type: biochemical; design: key to Neutrophil Elastase IC50 / Neutrophil Elastase IC90: - = inactive
T1 construct: purchased Merck Millipore 324681
T1 sequence (P08246 30-247 limits assumed): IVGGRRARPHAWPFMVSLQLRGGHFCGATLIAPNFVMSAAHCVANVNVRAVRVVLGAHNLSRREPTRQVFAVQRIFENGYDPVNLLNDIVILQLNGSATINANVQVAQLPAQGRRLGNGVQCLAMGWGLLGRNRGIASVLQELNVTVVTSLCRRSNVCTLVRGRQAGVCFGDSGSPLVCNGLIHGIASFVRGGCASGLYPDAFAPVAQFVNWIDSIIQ

[3] = target: recombinant human TMPRSS2 (Homo sapiens, UniProt O15393); assay: TMPRSS2 activity assay (fluorogenic AMC substrate); conditions: read-out: TMPRSS2 IC90
recombinant human TMPRSS2, sequence (O15393 106-492 limits assumed): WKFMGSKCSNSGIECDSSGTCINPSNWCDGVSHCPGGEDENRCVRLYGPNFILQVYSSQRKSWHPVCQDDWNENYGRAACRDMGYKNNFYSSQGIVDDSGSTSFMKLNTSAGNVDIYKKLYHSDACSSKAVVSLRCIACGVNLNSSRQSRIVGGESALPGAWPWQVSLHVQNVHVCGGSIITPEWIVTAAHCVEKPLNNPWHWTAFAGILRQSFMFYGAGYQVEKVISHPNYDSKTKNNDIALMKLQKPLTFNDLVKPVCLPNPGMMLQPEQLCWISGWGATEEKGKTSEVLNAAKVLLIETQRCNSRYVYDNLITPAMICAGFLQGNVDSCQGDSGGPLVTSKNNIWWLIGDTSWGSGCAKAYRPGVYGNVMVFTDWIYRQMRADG
Protocol: Fluorescence intensity was measured at an excitation wavelength of 380 nm and emission wavelength of 460 nm. […] Half maximal inhibition concentrations (IC50) were calculated using a non-linear regression model.
In a next step, 50 µl of 20 µM BOC-Gln-Ala-Arg-AMC protease substrate (Bachem #4017019) was added and incubated for 2 h at 37°C. Fluorescence intensity was measured after 2 h at an excitation wavelength of 380 nm and emission wavelength of 460 nm in a SynergyTM H1 microplate reader (BioTek) with Gen5 3.04 software.
Therefore, the ability of rhAAT to inhibit recombinant TMPRSS2 was assessed analogous to the neutrophil elastase measurement.
IC50 and IC90 were calculated using a non-linear regression model in GraphPad Prism 9.

recombinant human TMPRSS2 enzyme (CusaBio #YP023924HU) (human), sequence (O15393 106-492 limits assumed): as above

Molecule | TMPRSS2 IC50 (TMPRSS2 activity assay, fluorogenic BOC-Gln-Ala-Arg-AMC substrate) [1] [nM] | Neutrophil Elastase IC90 ([2]; non-linear regression) | Neutrophil Elastase IC50 ([2]; non-linear regression, three independent experiments) | inhibition of neutrophil elastase activity ([2]; result in words, Figure 27) | IC90 [3] [nM]
Prolastin (Grifols), human plasma-derived A1AT formulation (from UniProt P01009 25-418) | 79 |  |  |  | 
recombinant human alpha-1-antitrypsin (rhAAT) glycoprotein secreted from Pichia pastoris mutS strain 1B6 (from UniProt P01009 25-418) | 74.1 |  |  |  | 
CN(C)C(=O)COC(=O)Cc1ccc(OC(=O)c2ccc(NC(=N)N)cc2)cc1 [Camostat mesylate] |  | - | - | did not inhibit | 9.2
